# From PMC2990605 (British Journal of Cancer, 2010)
# Assay: Adverse events (CTCAEv3.0), worst grade per patient regardless of relation, and laboratory parameters
# Type: in vivo
# Settings: human, in vivo
# Method: Toxicity was evaluated according to common toxicity criteria for adverse events (CTCAEv3.0). The MTD was defined as the dose level(s) at which at least two out of six patients developed DLT.
# Toxicity assessment, haematology and clinical biochemistry were performed at baseline and weekly during the study. Physical and ECOG performance status were recorded at baseline and before the next cycle.
smiles,measurement,value
CC(C)C[C@@H](C(=O)N[C@H](C(=O)OC1CCCC1)c1ccccc1)[C@H](O)C(=O)NO [tosedostat],"Cough, CTCAE grade 3, patients",0
same,"Cough, CTCAE grade 4, patients",0
same,"Cough, patients with events, %",41%
same,"Cystitis, CTCAE grade 1, patients",0
same,"Cystitis, CTCAE grade 2, patients",1
same,"Cystitis, CTCAE grade 3, patients",1
same,"Cystitis, CTCAE grade 4, patients",0
same,"Cystitis, patients with events, %",9%
same,"Dehydration, CTCAE grade 1, patients",0
same,"Dehydration, CTCAE grade 2, patients",1
same,"Dehydration, CTCAE grade 3, patients",1
same,"Dehydration, CTCAE grade 4, patients",0
same,"Dehydration, patients with events, %",9%
same,"Diabetes mellitus, CTCAE grade 1, patients",0
same,"Diabetes mellitus, CTCAE grade 2, patients",0
same,"Diabetes mellitus, CTCAE grade 3, patients",1
same,"Diabetes mellitus, CTCAE grade 4, patients",0
same,"Diabetes mellitus, patients with events, %",5%
same,"Diarrhoea, CTCAE grade 1, patients",5
same,"Diarrhoea, CTCAE grade 2, patients",3
same,"Diarrhoea, CTCAE grade 3, patients",0
same,"Diarrhoea, CTCAE grade 4, patients",0
same,"Diarrhoea, patients with events, %",36%
same,"Dizziness, CTCAE grade 1, patients",8
same,"Dizziness, CTCAE grade 2, patients",1
same,"Dizziness, CTCAE grade 3, patients",1
same,"Dizziness, CTCAE grade 4, patients",0
same,"Dizziness, patients with events, %",45%
same,"Drug hypersensitivity, CTCAE grade 1, patients",3
same,"Drug hypersensitivity, CTCAE grade 2, patients",1
same,"Drug hypersensitivity, CTCAE grade 3, patients",7
same,"Drug hypersensitivity, CTCAE grade 4, patients",0
same,"Drug hypersensitivity, patients with events, %",50%
same,"Dry skin, CTCAE grade 1, patients",3
same,"Dry skin, CTCAE grade 2, patients",0
same,"Dry skin, CTCAE grade 3, patients",1
same,"Dry skin, CTCAE grade 4, patients",0
same,"Dry skin, patients with events, %",18%
same,"Dyspnoea, CTCAE grade 1, patients",6
same,"Dyspnoea, CTCAE grade 4, patients",0
same,"Eosinophilic myocarditis, CTCAE grade 1, patients",0
same,"Eosinophilic myocarditis, CTCAE grade 2, patients",0
same,"Eosinophilic myocarditis, CTCAE grade 3, patients",0
same,"Eosinophilic myocarditis, CTCAE grade 4, patients",0
same,"Eosinophilic myocarditis, patients with events, %",5%
same,"Erythema, CTCAE grade 1, patients",1
same,"Erythema, CTCAE grade 2, patients",0
same,"Erythema, CTCAE grade 3, patients",1
same,"Erythema, CTCAE grade 4, patients",0
same,"Erythema, patients with events, %",9%
same,"Fatigue, CTCAE grade 1, patients",5
same,"Fatigue, CTCAE grade 2, patients",10
same,"Fatigue, CTCAE grade 3, patients",6
same,"Fatigue, CTCAE grade 4, patients",0
same,"Fatigue, patients with events, %",95%
same,"Gastric dilatation, CTCAE grade 1, patients",0
same,"Gastric dilatation, CTCAE grade 2, patients",0
same,"Gastric dilatation, CTCAE grade 3, patients",1
same,"Gastric dilatation, CTCAE grade 4, patients",0
same,"Gastric dilatation, patients with events, %",5%
same,"General physical health deterioration, CTCAE grade 1, patients",0
same,"General physical health deterioration, CTCAE grade 2, patients",0
same,"General physical health deterioration, CTCAE grade 3, patients",1
same,"General physical health deterioration, CTCAE grade 4, patients",0
same,"General physical health deterioration, patients with events, %",5%
same,"Hypercalcaemia, CTCAE grade 1, patients",0
same,"Hypercalcaemia, CTCAE grade 2, patients",0
same,"Hypercalcaemia, CTCAE grade 3, patients",1
same,"Hypercalcaemia, CTCAE grade 4, patients",0
same,"Hypercalcaemia, patients with events, %",5%
same,"Hyperglycaemia, CTCAE grade 1, patients",0
same,"Hyperglycaemia, CTCAE grade 2, patients",1
same,"Hyperglycaemia, CTCAE grade 3, patients",2
same,"Hyperglycaemia, CTCAE grade 4, patients",0
same,"Hyperglycaemia, patients with events, %",14%
same,"Hyperhidrosis, CTCAE grade 1, patients",2
same,"Hyperhidrosis, CTCAE grade 2, patients",0
same,"Hyperhidrosis, CTCAE grade 3, patients",1
same,"Hyperhidrosis, CTCAE grade 4, patients",0
same,"Hyperhidrosis, patients with events, %",14%
same,"Leukopenia, CTCAE grade 1, patients",0
same,"Leukopenia, CTCAE grade 2, patients",1
same,"Leukopenia, CTCAE grade 3, patients",3
same,"Leukopenia, CTCAE grade 4, patients",0
same,"Leukopenia, patients with events, %",18%
same,"Malaise, CTCAE grade 1, patients",1
same,"Malaise, CTCAE grade 2, patients",1
same,"Malaise, CTCAE grade 3, patients",1
same,"Malaise, CTCAE grade 4, patients",0
same,"Malaise, patients with events, %",14%
same,"Mucosal inflammation, CTCAE grade 1, patients",4
same,"Mucosal inflammation, CTCAE grade 2, patients",1
same,"Mucosal inflammation, CTCAE grade 3, patients",0
same,"Mucosal inflammation, CTCAE grade 4, patients",0
same,"Mucosal inflammation, patients with events, %",23%
same,"Myalgia, CTCAE grade 1, patients",8
same,"Myalgia, CTCAE grade 2, patients",1
same,"Myalgia, CTCAE grade 3, patients",1
same,"Myalgia, CTCAE grade 4, patients",0
same,"Myalgia, patients with events, %",45%
same,"Nasopharyngitis, CTCAE grade 1, patients",6
same,"Nasopharyngitis, CTCAE grade 2, patients",0
same,"Nasopharyngitis, CTCAE grade 3, patients",0
same,"Nasopharyngitis, CTCAE grade 4, patients",0
same,"Nasopharyngitis, patients with events, %",27%
same,"Nausea, CTCAE grade 1, patients",9
same,"Nausea, CTCAE grade 2, patients",1
same,"Nausea, CTCAE grade 3, patients",0
same,"Nausea, CTCAE grade 4, patients",0
same,"Nausea, patients with events, %",45%
same,"Neoplasms benign, malignant and unspecified (including cysts and polyps), patients with events, %",14%
same,"Nervous system disorders, patients with events, %",95%
same,"Neutropenia, CTCAE grade 1, patients",0
same,"Neutropenia, CTCAE grade 2, patients",0
same,"Neutropenia, CTCAE grade 3, patients",2
same,"Neutropenia, CTCAE grade 4, patients",4
same,"Neutropenia, patients with events, %",27%
same,"Oedema peripheral, CTCAE grade 1, patients",6
same,"Oedema peripheral, CTCAE grade 2, patients",2
same,"Oedema peripheral, CTCAE grade 3, patients",0
same,"Oedema peripheral, CTCAE grade 4, patients",0
same,"Oedema peripheral, patients with events, %",36%
same,"Oedema, CTCAE grade 1, patients",4
same,"Oedema, CTCAE grade 2, patients",0
same,"Oedema, CTCAE grade 3, patients",1
same,"Oedema, CTCAE grade 4, patients",0
same,"Oedema, patients with events, %",23%
same,"Peripheral sensory neuropathy, CTCAE grade 1, patients",6
same,"Peripheral sensory neuropathy, CTCAE grade 2, patients",4
same,"Peripheral sensory neuropathy, CTCAE grade 3, patients",3
same,"Peripheral sensory neuropathy, CTCAE grade 4, patients",0
same,"Peripheral sensory neuropathy, patients with events, %",59%
same,"Pollakiuria, CTCAE grade 1, patients",0
same,"Pollakiuria, CTCAE grade 2, patients",0
same,"Pollakiuria, CTCAE grade 3, patients",1
same,"Pollakiuria, CTCAE grade 4, patients",0
